Reference: patent publication US8088772B2, “Sulfonamides and their use as a medicament” (The Genetics Company, Inc., priority 2006, dated 2012)

Assays:
βCatenin-BCL9 = assay: ELISA based protein-protein interaction assay; assay type: binding; settings: inhibition class of the βCatenin-BCL9 interaction
Method: In vitro ELISA-based Protein-protein Interaction Assay
Protein Production in Bacteria
cDNAs including the binding domains of Lgs and βCatenin were fused downstream of glutathione-S-transferase (GST) cDNA in pGEX-4T inducible bacterial expression vector (Pharmacia). Fusion proteins were produced in BL21 bacteria (e.g. Stratagene) following manufacturer's recommendation.
To isolate the produced fusions protein bacteria were lysed in sonication buffer (10 mM Tris HCl pH 8.0, 150 mM NaCl, 1 mM EDTA, 1.5% sarkosyl, 2% Triton-X-100, 1 mM DTT and protease inhibitors), followed by short sonication on ice (e.g. 3 times 20 seconds at middle power) and centrifugation. Cleared supernatants were incubated under gentle rotation with glutathione beads (Amersham Pharmacia) for 2 hrs at 4° C. Finally, beads were washed several time in washing buffer (20 mM Tris pH 8.0, 200 mM NaCl, 1 mM EDTA, 1 mM DTT, 1 mM MgCl2, 0.5% NP40), and stored in storage buffer (20 mM Tris pH 8.0, 200 mM NaCl, 1 mM EDTA, 1 mM DTT, 1 mM MgCl2, 10% glycerol, 0.5% NP40, and proteinase inhibitors). The quality of the preparations was checked by SDS-gel electrophoresis by standard methods well known by persons skilled in the art. […]

Wnt pathway = assay: Cell Assay (CA): inhibition of Wnt activity in cancer cells, Tcf reporter gene; assay type: cell-based; settings: inhibition class in the Cell Assay
Excerpt: Inhibition of Wnt Activity in Cancer Cells
The effect of β-catenin/BCL9 inhibitors identified in the ELISA-based protein-protein interaction assay on the Wnt pathway can be evaluated in a cell culture system using a reporter gene responsive to the Tcf/Lef family of transcription factors or by quantitative analysis of Wnt target genes in appropriate cell lines.
A reporter gene is a construct which comprises a readily detectable or assayable gene such β-galactosidase, green fluorescent protein, chloramphenicol acetyltransferase or luciferase, linked in cis to a transcription factor response element and a minimal promoter. Depending on the expression vectors used, this protocol can be applied, e.g. for mammalian as well as for Drosophila cell lines. For instance, colon cancer cells with constitutively active Wnt pathway like DLD-1 or SW620 (ATCC) are a well suitable system. Hereby, a Tcf-4 driven luciferase reporter plasmid (i.e. TOP-FLASH, Upstate biotechnology, New York, USA) is transiently or stably transfected into cells known in the art. Any means for introducing genetic material into cells can be used, including but not limited to infection, electroporation or transfection. For instance, to introduce DNA into DLD-1 cells, a lipofection agent like the Lipofectamine transfection reagent (Life Technologies, Inc.) can be used. By transient transfection protocols, a second reporter gene, e.g. the renilla luciferase reporter plasmid pRL-SV40 (Promega Corporation, Madison USA), needs to be co-transfected to normalize for transfection efficiency. Drugs are added to the media 24 h after trans-fection (transient transfection) or 24 h after seeding of the cells (stably transfected cells). Cell extracts are prepared 24 to 48 h later and assayed for reporter gene activity as described by the manufacturer (eg. for luciferase activity: Promega Corporation). Compounds reducing reporter gene activity more than 50% compared to solvent alone treated cells are considered as hits. In parallel, toxicity can be assessed for instance by the yellow tetrazolium salt cell proliferation assay (MTT) assay.

SMILES	ELISA (βCatenin-BCL9)	CA (Wnt pathway)
COC(=O)c1ccccc1S(=O)(=O)Nc1ccccc1Cl [TGC0011601]	1 (0-20% inhibition)	1 (0-20% inhibition)
Cc1cc(-c2ccccc2)nn1-c1ccc([N+](=O)[O-])cc1S(=O)(=O)Nc1ccccc1Cl [TGC0011569]	1.5	4 (61-80% inhibition)
Cc1cc(-c2ccccc2)n(-c2ccc([N+](=O)[O-])cc2S(=O)(=O)Nc2ccccc2Cl)n1 [TGC0011570]	5 (81-100% inhibition)	4 (61-80% inhibition)
O=[N+]([O-])c1ccc(N/N=C/c2cc(Cl)cc(Cl)c2O)c(S(=O)(=O)Nc2ccccc2Cl)c1 [TGC0010527]	3 (41-60% inhibition)	4.5
CCN1C(=O)/C(=N\Nc2ccc([N+](=O)[O-])cc2S(=O)(=O)Nc2ccccc2Cl)c2ccccc21 [TGC0010665]	2 (21-40% inhibition)	4 (61-80% inhibition)
COC(=O)c1ccc(Cl)c(NS(=O)(=O)c2ccccc2Br)c1 [TGC0011494]	1 (0-20% inhibition)	1 (0-20% inhibition)
COc1ccc(/C=N/Nc2ccc(N)cc2S(=O)(=O)Nc2ccccc2Cl)cc1OC [TGC0011584]	1 (0-20% inhibition)	3 (41-60% inhibition)
CC(=O)c1ccc(S(=O)(=O)NNc2ccc([N+](=O)[O-])cc2S(=O)(=O)Nc2ccccc2Cl)cc1 [TGC0011581]	2 (21-40% inhibition)	1 (0-20% inhibition)
O=[N+]([O-])c1ccc(N/N=C/c2ccccn2)c(S(=O)(=O)Nc2ccccc2Cl)c1 [TGC0011401]	1.5	4 (61-80% inhibition)
O=[N+]([O-])c1ccc(N/N=C/c2ccc(O)cc2)c(S(=O)(=O)Nc2ccccc2Cl)c1 [TGC0011359]	3 (41-60% inhibition)	3 (41-60% inhibition)
